The source of these data is patent publication USRE39197E1, “Cell adhesion-inhibiting antiinflammatory and immune-suppressive compounds” (Abbott Laboratories, priority 1998, dated 2006).

For assay [1], the target named is T1, interaction between the integrin LFA-1 and its adhesion partner ICAM-1 (Homo sapiens, UniProt P20701).
T1 construct: Recombinant LFA-1 (100 μL of 0.7 μg/ml mL, ICOS Corporation) in D-PBS; purchased ICOS Corporation
The assay is described as follows: ICAM-1/LFA-1 Biochemical Interaction Assay. Format: binding. The following applies: 4 μM compound; recombinant LFA-1, biotinylated ICAM-1/Ig. As to the method:
Compounds that antagonize the interaction between ICAM-1 and LFA-1 can be identified, and their activities quantitated, using both biochemical and cell-based adhesion assays. A primary biochemical assay measures the ability of the compound in question to block the interaction between the integrin LFA-1 and its adhesion partner ICAM-1, as described below:
ICAM-1/LFA-1 Biochemical Interaction Assay
In the biochemical assay, 100 μL of anti-LFA-1 antibody (ICOS Corporation) at a concentration of 5 μg/ml mL in Dulbecco's phosphate-buffered saaline (D-PBS) is used to coat wells of a 96-well microtiter plate overnight at 4° C. The wells are were then washed twice with wash buffer (D-PBS w/o Ca^++ or Mg^++, 0.05% Tween 20) and blocked by addition of 200 μL of D-PBS, 5% fish skin gelatin. Recombinant LFA-1 (100 μL of 0.7 μg/ml mL, ICOS Corporation) in D-PBS is was then added to each well. Incubation continues continued for 1 hour at room temperature and the wells are were washed twice with wash buffer. Serial dilutions of compounds being assayed as ICAM-1/LFA-1 antagonists, were prepared as 10 mM stock solutions in dimethyl sulfoxide (DMSO), are were diluted in D-PBS, 2 mM MgCl2, 1% fish skin gelatin and 50 μL of each dilution was added to duplicate wells. This is was followed by the addition of 50 μL of 0.8 μg/ml mL biotinylated recombinant ICAM-1/Ig (ICOS Corporation) to the wells and the plates are were incubated at room temperature for 1 hour. The wells are were then washed twice with wash buffer and 100 μL of Europium-labeled Streptavidin (Wallac Oy) diluted 1:100 in Delfia assay buffer (Wallac Oy), are was then added to the wells. Incubation proceeds proceeded for 1 hour at room temperature. The wells are were washed eight times with wash buffer and 100 μL of enhancement solution (Wallac Oy, cat. No. 1244-105) are was added to each well. Incubation proceeds proceeded for 5 minutes with constant mixing. Time-resolved fluorimetry measurements are were made using the a Victor 1420 Multilabel Counter (Wallac Oy) and the percent inhibition of each candidate compound is was calculated using the following equation: [formula] where “background” refers to wells that are were not coated with anti-LFA-1 antibody.

The test system of assay [2] is adherence of JY-8 cells (expressing LFA-1) to immobilized ICAM-1. The assay is described as follows: ICAM-1/JY-8 Cell Adhesion Assay. Format: cell-based, human. The protocol: ICAM-1/JT-8 Cell Adhesion Assay
For measurment measurement of inhibotory inhibitory activity in the cell-based adhesion assay, 96-well microtiter plates are were coated with 70 μL of recombinat recombinant ICAM-1/Ig (ICOS Corporation) at a concentration of 5 μg/mL in D-PBS w/o without Ca^++ or Mg++ or Mg^++ overnight at 4° C. The wells are were then washed twice with D-PBS and blocked by addition of 200 μL of D-PBS, 5% fish skin gelatin by incubation for 1 hour at room temperature. […] The percent inhibition of a candidate compound at a given concentration is was calculated using the following equation: [formula] and these concentration/inhibition data are were used to generate does response curves, from which IC50 values are were derived.

[3] abbreviates: Homo sapiens, JY-8, JY-8 cells on immobilized ICAM-1/Ig.

T1 sequence (P20701 26-1170): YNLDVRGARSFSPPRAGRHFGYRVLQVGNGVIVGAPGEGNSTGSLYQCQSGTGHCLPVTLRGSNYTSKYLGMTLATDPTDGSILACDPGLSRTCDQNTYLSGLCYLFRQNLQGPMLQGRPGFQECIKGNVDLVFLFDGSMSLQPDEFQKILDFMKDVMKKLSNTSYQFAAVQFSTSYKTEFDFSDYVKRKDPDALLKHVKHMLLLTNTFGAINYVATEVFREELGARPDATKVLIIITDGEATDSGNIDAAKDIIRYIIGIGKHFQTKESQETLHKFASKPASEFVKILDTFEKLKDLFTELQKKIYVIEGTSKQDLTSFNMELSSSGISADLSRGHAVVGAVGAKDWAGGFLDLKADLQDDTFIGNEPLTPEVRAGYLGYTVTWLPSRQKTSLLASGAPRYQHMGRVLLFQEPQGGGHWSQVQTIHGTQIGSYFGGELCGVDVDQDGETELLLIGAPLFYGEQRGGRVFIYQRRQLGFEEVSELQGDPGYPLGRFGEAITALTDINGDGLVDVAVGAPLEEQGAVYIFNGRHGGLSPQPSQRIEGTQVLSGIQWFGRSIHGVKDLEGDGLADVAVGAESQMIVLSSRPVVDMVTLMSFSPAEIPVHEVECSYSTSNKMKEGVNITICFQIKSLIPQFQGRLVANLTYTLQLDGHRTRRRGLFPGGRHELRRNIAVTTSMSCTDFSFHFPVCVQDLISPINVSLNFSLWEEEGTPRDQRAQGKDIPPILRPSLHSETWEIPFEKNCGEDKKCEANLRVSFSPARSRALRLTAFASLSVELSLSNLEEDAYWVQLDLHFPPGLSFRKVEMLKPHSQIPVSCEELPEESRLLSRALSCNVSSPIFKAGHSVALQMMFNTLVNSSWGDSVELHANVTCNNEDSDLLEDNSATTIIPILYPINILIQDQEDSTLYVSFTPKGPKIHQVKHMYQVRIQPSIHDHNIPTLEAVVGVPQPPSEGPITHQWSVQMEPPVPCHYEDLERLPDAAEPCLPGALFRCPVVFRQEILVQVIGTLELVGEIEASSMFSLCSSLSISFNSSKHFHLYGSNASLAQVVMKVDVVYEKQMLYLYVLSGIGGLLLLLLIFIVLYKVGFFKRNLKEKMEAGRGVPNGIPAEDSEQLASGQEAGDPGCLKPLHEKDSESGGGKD
T1 sequence (P05107 23-769 partner): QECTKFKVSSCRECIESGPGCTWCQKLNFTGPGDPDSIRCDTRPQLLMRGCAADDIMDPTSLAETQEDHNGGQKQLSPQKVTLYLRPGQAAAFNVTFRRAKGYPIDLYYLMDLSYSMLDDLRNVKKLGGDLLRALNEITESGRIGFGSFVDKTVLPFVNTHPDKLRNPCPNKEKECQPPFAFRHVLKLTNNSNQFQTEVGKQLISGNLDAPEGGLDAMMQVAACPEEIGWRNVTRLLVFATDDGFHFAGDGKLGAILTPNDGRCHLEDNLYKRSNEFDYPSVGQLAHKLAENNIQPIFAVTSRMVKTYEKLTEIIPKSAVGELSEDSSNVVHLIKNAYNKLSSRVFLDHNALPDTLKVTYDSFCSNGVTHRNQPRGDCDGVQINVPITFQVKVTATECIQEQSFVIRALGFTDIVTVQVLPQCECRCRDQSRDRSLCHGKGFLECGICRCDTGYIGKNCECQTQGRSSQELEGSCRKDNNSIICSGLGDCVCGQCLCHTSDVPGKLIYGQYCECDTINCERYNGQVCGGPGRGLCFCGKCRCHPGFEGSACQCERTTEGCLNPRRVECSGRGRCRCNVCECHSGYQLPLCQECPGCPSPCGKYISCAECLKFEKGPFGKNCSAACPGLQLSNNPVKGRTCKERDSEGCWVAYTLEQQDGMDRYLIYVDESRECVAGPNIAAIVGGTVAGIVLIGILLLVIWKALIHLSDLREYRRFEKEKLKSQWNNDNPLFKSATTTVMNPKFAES

By inhibition is commonly meant the relative decrease from the control value, in per cent. For orientation: IC50 means the concentration that inhibits the measured activity by half. Lower therefore signals inhibition by little substance. In the case of `CC(C)(C)OC(=O)N1CCN(C(=O)/C=C/c2ccc(Sc3ccc(Cl)cc3Cl)c([N+](=O)[O-])c2)CC1` [Example 37, (2,4-Dichlorophenyl)[2-nitro-4-(E-((4-(tert-butoxycarbonyl)piperazin-1-yl)carbonyl)ethenyl)phenyl]sulfide], the inhibition at 4 µM in assay [1] amounted to 91%. Moreover, the IC50 in assay [2] (setting [3]) turned out to be 140 nM.
As for `O=C(C(=O)N1CCN(C(=O)/C=C/c2ccc(Sc3ccc(Cl)cc3Cl)c([N+](=O)[O-])c2)CC1)c1ccco1` [Example 38, (2,4-Dichlorophenyl)[2-nitro-4-(E-((4-(2-furoylcarbonyl)piperazin-1-yl)carbonyl)ethenyl)phenyl]sulfide], the inhibition at 4 µM in assay [1] amounted to 91%. Moreover, in assay [2] (setting [3]), the IC50 is 250 nM.
Taken in the same sequence, the figures for `CS(=O)(=O)N1CCN(C(=O)/C=C/c2ccc(Sc3ccc(Cl)cc3Cl)c([N+](=O)[O-])c2)CC1` [Example 39, (2,4-Dichlorophenyl)[2-nitro-4-(E-((4-(methanesulfonyl)piperazin-1-yl)carbonyl)ethenyl)phenyl]sulfide] were 86% and 250 nM.
For the compound `CCN(CC)C(=O)CN1CCN(C(=O)/C=C/c2ccc(Sc3ccc(Cl)cc3Cl)c([N+](=O)[O-])c2)CC1` [Example 40, (2,4-Dichlorophenyl)[2-nitro-4-(E-((4-(diethylaminocarbonylmethyl)piperazin-1-yl)carbonyl)ethenyl)phenyl]sulfide], in assay [1], the inhibition at 4 µM was 90%. For the same compound, in assay [2] (setting [3]), the IC50 came to 280 nM.
Taken in the same sequence, the figures for `CC(C)(C)OC(=O)CN1CCN(C(=O)/C=C/c2ccc(Sc3ccc(Cl)cc3Cl)c([N+](=O)[O-])c2)CC1` [Example 42, (2,4-Dichlorophenyl)[2-nitro-4-(E-((4-(tert-butoxycarbonylmethyl)piperazin-1-yl)carbonyl)ethenyl)phenyl]sulfide] were 56% and 520 nM.
For `O=C(O)C(=O)N1CCN(C(=O)/C=C/c2ccc(Sc3ccc(Cl)cc3Cl)c([N+](=O)[O-])c2)CC1` [Example 43, (2,4-Dichlorophenyl)[2-nitro-4-(E-((4-(carboxycarbonyl)piperazin-1-yl)carbonyl)ethenyl)phenyl]sulfide], in that order: 82% and 100 nM.
On to `O=C(O)CN1CCN(C(=O)/C=C/c2ccc(Sc3ccc(Cl)cc3Cl)c([N+](=O)[O-])c2)CC1` [Example 44, (2,4-Dichlorophenyl)[2-nitro-4-(E-((4-(carboxymethyl)piperazin-1-yl)carbonyl)ethenyl)phenyl]sulfide], for which, in assay [1], the inhibition at 4 µM came to 78%. In assay [2] (setting [3]), this compound came in with an IC50 of 70 nM.
On to `CC(=O)N1CCN(C(=O)/C=C/c2ccc(Sc3ccccc3N)c([N+](=O)[O-])c2)CC1` [Example 47, (2-Aminophenyl)[2-nitro-4-(E-((4-acetylpiperazin-1-yl)carbonyl)ethenyl)phenyl]sulfide], for which the inhibition at 4 µM in assay [1] is 82%. The compound also displayed an IC50 in assay [2] (setting [3]) of 370 nM.
With `CC(=O)N1CCN(C(=O)/C=C/c2ccc(Sc3ccccc3CO)c([N+](=O)[O-])c2)CC1` [Example 48, (2-Hydroxymethylphenyl)[2-nitro-4-(E-((4-acetylpiperazin-1-yl)carbonyl)ethenyl)phenyl]sulfide], the inhibition at 4 µM in assay [1] was determined as 89%. This compound came in with an IC50 in assay [2] (setting [3]) of 200 nM.
Taken in the same sequence, the figures for `CC(=O)N1CCN(C(=O)/C=C/c2ccc(Sc3ccccc3C(C)(C)C)c([N+](=O)[O-])c2)CC1` [Example 51, (2-tert-Butylphenyl)[2-nitro-4-(E-((4-acetylpiperazin-1-yl)carbonyl)ethenyl)phenyl]sulfide] were 84% and 690 nM.
As to `CC(C)NC(=O)CN1CCN(Cc2ccccc2Sc2ccc(/C=C/C(=O)N3CCOCC3)cc2Cl)CC1` [Example 55, (2-(4-(iso-Propylaminocarbonylmethyl)piperazin-1-ylmethyl)phenyl)[2-chloro-4-(E-((1-morpholinyl)carbonyl)ethenyl)phenyl]sulfide], the “% inhibition @ 4 μM” value in assay [1] worked out at 82%. Moreover, the IC50 in assay [2] (JY-8 cells on immobilized ICAM-1/Ig) turned out to be 100 nM.
